Source: publication PMC6452685, “Lysyl-tRNA synthetase as a drug target in malaria and cryptosporidiosis” (Proceedings of the National Academy of Sciences of the …, 2019)
pEC50, pIC50: −log10 of the molar value.

Key:
CYP3A4 = molecular target: T1, CYP3A4 (Homo sapiens, UniProt P08684); assay: Fluorescence-based CYP inhibition, CYP3A4; type: in vitro ADME
T1 construct: purchased Cypex, Dundee, UK; host or cells: bacterial membranes (bactosomes)
Description: (§1) 4.7 F lu or e s ce nce-based CYP I nhibition usin g recombinantly expressed CYP b actosomes Fl uorogeni c C YP i nhi bi t i on s t udi es w ere c ondu ct ed at 37 °C i n 96-well, flat-bot t om, cl ear p ol y s t y rene pl at es. I ncubat i on mi xt ures cont ai ni ng Eas y C YP bact os omes (1000 pmol /ml , 10 mg /ml C y pex TM, Dundee, UK), fl uorogeni c substrate (Cypex TM) and 50 mM potas s i um phosphat e buffer (p H 7. 4) w er e prepared at t he fol l ow i ng fi nal concent rat i ons : C YP1A2, 5 pmol /ml + 35 µ M et hox y res orufi n (ER) ; CYP2C9, 10 pm ol/ml + 30 µM 7-methoxy-4-(tri fl uo romethy l )-coumari n (MFC ); C YP 2C 19, 5 pm ol /ml + 25 µM 3-cy ano-7-eth oxycoumarin (CEC); C YP 2D 6, 10 pmol /ml + 6 µM 7-meth oxy-4-(ami nomethy l )- coumari n (MAMC ); C YP 3A4, 10 pmol /ml + 1 µM diethoxyfluorescein (DEF) and 10 pmol /ml + 15 µM 7-benz y l ox y qui nol i ne (BQ ). […] 0125 ( 1A2 and 2C 9 onl y ) o r 0. 025 mg /ml (al l ot her i s oforms ). […] Positive control inhibitor, miconazole, was prepared as a 500 µM s olution in DMSO and similarly diluted.
(§2) For eac h i sofo rm, 2 20 µl of i ncubati on mi x was added to each wel l of a 96-well, flat-bot t om, cl ear pol y s t y rene pl at e. Al i quot s (5 µl) of each compound 5 conce ntrati on was then mi x ed wi th 220 µl of the incubation mix and pre-incubated at 37 °C for 5 min (final test compound concentration range: […]

Plasmodium falciparum = assay: In vitro parasite reduction ratio (PRR) assay; type: cell-based; conditions: 10 x EC50, 120 h
Description: 3.5 In vitro parasite reduction ratio (PRR) assay with Pl as modi um fal c i p aru m (G S K) The in vitro Parasite Rate Reduction assay (PRR) was conducted as previously described (8). […] Drug was renewed daily over the entire treatment period. Samples of paras i t es w ere t ak en from t he t reat ed cul t ure at i nt erv al s (24, 48, 72, 96 and 120 h t i me poi nt s ), drug was washed out and drug-free paras i t es w ere cul tured i n 96-well plates by adding fre s h e ry t hrocy t e s
and new cul ture medi a. T he n umber of vi abl e parasi tes was determi ned by the seri al di l uti on technique. Four indepe ndent serial dilutions were done with each sample to correct for experimental

CYP2D6 = molecular target: T2, CYP2D6 (Homo sapiens, UniProt P10635); assay: Fluorescence-based CYP inhibition, CYP2D6; type: in vitro ADME
T2 construct: purchased Cypex, Dundee, UK; host or cells: bacterial membranes (bactosomes)
Description: as §1, §2

C. hominis (TU502) = assay: Activity against Cryptosporidium hominis; type: cell-based
Description: Thi s i s bas ed on methods previ ousl y reported (14). Mature P. falciparum stage V gametocytes (NF54)
were incubated with test compound for 24 h at 3 7°C i n 384-well plates containing complete culture
medi um (RPMI 1640, 25 mM HEPES, 2 g/l D-glucose, 2 g/l sodium bicarbonate, 50 mg/l
Gametogenesis was triggered by dis pens i ng 10 µl ookinete medium (RPMI 1640, 25 mM HEPES, 2 g/l
D-glucose, 2 g/l sodium bicarbonate, 50 mg/l hy pox ant hi ne, 100 µM xanthurenic acid) also
contai ni ng 2. 7 µg/ml anti-Pfs25-Cy3 into each well and cooling the plate on a metal block at 4 °C fo r
4 mi n. Fi fteen s l ater male gametogenesis was recorded by b ri ghtfi el d i magi ng usi ng ti m e s 6 object i v e
and then the pl ate stored at 2 6 °C for a fu rther 24 h to allow female gametes to develop. Female
gamete formation was assessed by fluorescence m icroscopy using x6 objective to identify anti-Pfs25-
gentian violet negative and positive controls.
3.1 3 Act iv it y a gains t Cry pt os pori diu m h omi nis (CALIBR)
Thi s i s bas ed on methods previ ousl y reported (10).

T1 sequence (P08684 whole entry): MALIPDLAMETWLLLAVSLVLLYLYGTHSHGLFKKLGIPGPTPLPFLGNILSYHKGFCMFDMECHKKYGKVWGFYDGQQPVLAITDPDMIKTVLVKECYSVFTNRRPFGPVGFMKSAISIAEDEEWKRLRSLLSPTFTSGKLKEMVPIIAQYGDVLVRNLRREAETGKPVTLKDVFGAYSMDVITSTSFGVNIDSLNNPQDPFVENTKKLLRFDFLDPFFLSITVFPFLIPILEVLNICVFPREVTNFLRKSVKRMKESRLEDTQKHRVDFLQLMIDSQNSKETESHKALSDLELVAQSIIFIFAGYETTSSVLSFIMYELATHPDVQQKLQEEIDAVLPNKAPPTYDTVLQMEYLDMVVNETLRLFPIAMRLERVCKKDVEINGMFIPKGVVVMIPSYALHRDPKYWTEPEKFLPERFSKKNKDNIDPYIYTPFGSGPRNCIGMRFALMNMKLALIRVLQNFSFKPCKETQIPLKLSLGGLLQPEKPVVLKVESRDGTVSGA
T2 sequence (P10635 whole entry): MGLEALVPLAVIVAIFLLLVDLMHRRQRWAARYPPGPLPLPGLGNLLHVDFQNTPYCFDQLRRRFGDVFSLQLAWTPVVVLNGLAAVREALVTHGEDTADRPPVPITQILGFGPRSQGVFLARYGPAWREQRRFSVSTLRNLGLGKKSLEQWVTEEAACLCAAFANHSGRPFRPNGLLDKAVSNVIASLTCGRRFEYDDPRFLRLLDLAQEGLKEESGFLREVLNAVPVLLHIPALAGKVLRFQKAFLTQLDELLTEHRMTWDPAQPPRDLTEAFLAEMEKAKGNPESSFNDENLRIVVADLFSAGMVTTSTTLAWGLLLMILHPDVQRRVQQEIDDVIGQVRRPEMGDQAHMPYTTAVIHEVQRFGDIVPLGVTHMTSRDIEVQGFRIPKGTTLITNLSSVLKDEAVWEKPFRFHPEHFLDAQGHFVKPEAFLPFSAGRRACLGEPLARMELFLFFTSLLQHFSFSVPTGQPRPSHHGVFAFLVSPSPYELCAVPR

For `O=C(NCC1(O)CCC(F)(F)CC1)c1cc(=O)c2cc(F)ccc2o1` [Compound 5], the pIC50 (CYP3A4) was under 5.00, the “rate of killing (PRR assay)” value (Plasmodium falciparum) was “slow rate of killing” and the pIC50 (CYP2D6) was under 5.00. It also gave a pEC50 (C. hominis (TU502)) of 5.22.
